Test results published in patent publication US10226448B2, “3-(1H-pyrrolo[3,2-C]pyridin-2-yl)-1H-pyrazolo[3,4-B]pyridines and therapeutic uses thereof” (Samumed, LLC, priority 2015, dated 2019).

What was measured:
Type in all cases: cell-based
[1] = tested on: Wnt activity (Sp5-Luc reporter, TCF/LEF binding sites) in SW480 colon carcinoma cells; assay: Wnt activity screening assay: Sp5-Luc reporter gene assay in SW480 cells; settings: Homo sapiens; for EC50: Sp5-Luc reporter, SW480 cells, overnight incubation
From the text: The screening assay for Wnt activity is described as follows. Reporter cell lines can be generated by stably transducing cancer cell lines (e.g., colon cancer) or primary cells (e.g., IEC-6 intestinal cells) with a lentiviral construct that includes a Wnt-responsive promoter driving expression of the firefly luciferase gene.
SW480 colon carcinoma cells were transduced with a lentiviral vector expressing luciferase with a human Sp5 promoter consisting of a sequence of eight TCF/LEF binding sites. SW480 cells stably expressing the Sp5-Luc reporter gene and a hygromycin resistance gene were selected by treatment with 150 μg/mL of hygromycin for 7 days. These stably transduced SW480 cells were expanded in cell culture and used for all further screening activities. […] For Sp5-Luc reporter gene assays, the cells were plated at 4,000 cells/well in 384-well plates with medium containing 1% fetal bovine serum and incubated overnight at 37° C. and 5% CO2. Following incubation, 20 μl of BrightGlo luminescence reagent (Promega) was added to each well of the 384-well assay plates. The plates were placed on an orbital shaker for 2 min and then luminescence was quantified using the Envision (Perkin Elmer) plate reader. Readings were normalized to DMSO only treated cells, and normalized activities were utilized for EC50 calculations using the dose-response log (inhibitor) vs. response variable slope (four parameters) nonlinear regression feature available in GraphPad Prism 5.0 (or Dotmatics).

SW480 colon cancer cells = assay: Cell viability assay (CellTiter-Blue) in SW480 colon cancer cells; settings: Homo sapiens; for EC50: 96 h, SW480 cell viability, four days, CellTiter-Blue
Procedure: Representative compounds were screened using the following assay procedure to assess the effect on cell viability as described below.
Approximately 2×10^3 SW480 colon cancer cells were seeded into each well and allowed to incubate in the presence or absence of compound for four days at 37° C./5% CO2. Eight replicates of DMSO-treated cells served as controls and cells treated with compound were performed in duplicate.
After incubation, 20 μL of CellTiter-Blue (Promega) was added to each well allowed to incubate for approximately 3 hours. This reagent was a buffered solution which contains resazurin, metabolically active cells were able to reduce rezarurin (blue) into resorufin (pink) which was highly fluorescent. This measured fluorescence was used as a readout for cell viability.

[2] = tested on: LL29 cells (primary human fibroblasts derived from IPF patients), α-smooth muscle actin; assay: Inhibition of the fibrotic process: αSMA staining in TGF-β1 treated primary human fibroblasts from IPF patients (LL29 cells); settings: Fibroblast; for EC50: 96 h, LL29 cells, TGF-β1 20 ng/mL, 4 days, % αSMA positive cells; for inhibition at 10 µM: read-out: percent inhibition at 10 μM
Procedure: Representative compounds were screened using primary human fibroblasts (derived from IPF patients) treated with TGF-β1 to determine their ability to inhibit the fibrotic process.
LL29 cells are plated at 1,500 cells/well in 80 μL/well F12 medium supplemented with 1% Fetal Bovine Serum. […] Wells treated with TGF-β1 and containing DMSO were used as controls. […] Following incubation for 4 days, SYTOX green nucleic acid stain (Life Technologies [Thermo Fisher Scientific]) was added to the wells at a final concentration of 1 μM and incubated at room temperature for 30 min.

[3] = tested on: primary human mesenchymal stem cells (hMSCs); assay: Induction of chondrogenesis in primary human mesenchymal stem cells (chondrogenic nodules, Rhodamine B / Nile Red); settings: 6 days; for Emax: relative to TGF-β3 (10 ng/mL) positive control, read-out: Max. Activity as % TGF-β3 activity; for EC50: concentration required to induce 50% levels of chondrogenesis vs TGF-β3, read-out: Conc (nM) of 50% TGF-β3 activity
From the text: Representative compounds were screened using primary human mesenchymal stem cells (hMSCs) to determine their ability to induce chondrogenesis (process by which cartilage is developed).
Human Mesenchymal Stem Cell Culture: Primary human mesenchymal stem cells (hMSCs) were purchased from Lonza (Walkersville, Md.) and expanded in Mesenchymal Stem Cell Growth Media (Lonza). Cells between passage 3 and 6 were used for the experiments.
To image chondrogenic nodules, the cells were fixed using 4% formaldehyde (Electron Microscopy Sciences), and stained with 2 μg/mL Rhodamine B (Sigma-Aldrich) and 20 μM Nile Red (Sigma-Aldrich) [Johnson K., et. al, A Stem Cell-Based Approach to Cartilage Repair, Science, (2012). […] Number of nodules in each well was normalized to the average of 3 DMSO treated wells on the same plate using Excel (Microsoft Inc.). The normalized averages (fold change over DMSO) of 3 replicate wells for each compound concentration were calculated. Due to solubility limitations of some of the compounds, curve fitting was incomplete leading to inaccurate EC50 determinations.
Using TGF-β3 as a positive control, the concentration of representative compounds required to induce 50% levels of chondrogenesis is reported. In addition, the maximum activity of each compound and the respective dose that each compound reached maximum chondrogenesis activity is reported.

IL-6 in THP-1 cells = assay: IL-6 inhibition in LPS-stimulated THP-1 human monocyte cells (HTRF); settings: for EC50: IL-6 inhibition, LPS-stimulated THP-1 cells, HTRF, 10-point dose-response starting from 10 μM; for inhibition at 10 µM: THP-1, read-out: percentage in parentheses beside EC50 >10
Procedure: Compound Screening: THP-1 cells were cultured in basal media with 1% FBS for 24 hours before the start of the assay. […] THP-1 cells were plated at 5000 cells/well in the 384-well plates and incubated at 37° C. for 2 h. 500 ng/mL of LPS was added after 2 hours and cells were incubated for another 22 hours at 37° C. Plates were spun in a centrifuge for 1 minute at […] and a mixture of anti-IL6 XL665, and anti-IL6 Cryptate diluted in reconstitution buffer (Cisbio Inc.) was added to each well. Following incubation for 3 hrs at room temperature, Homogeneous Time-Resolved Fluorescence (HTRF) was measured using the Envision (Perkin Elmer) at 665 nm and […]. The ratio of fluorescence at 665 nm to 620 nm was used as a readout for IL6 quantification. All samples were processed in duplicate. Readings were normalized to DMSO treated cells and normalized activities were utilized for EC50 calculations using the dose-response log (inhibitor) vs. response variable slope (four parameters) nonlinear regression feature available in GraphPad Prism 5.0 (or Dotmatics).

[4] = SW480, read-out: percent inhibition at 10 μM

SMILES	EC50 [1] [µM]	EC50 (SW480 colon cancer cells) [nM]	EC50 [2] [nM]	Emax [3] [%]	EC50 (IL-6 in THP-1 cells) [nM]	EC50 [3] [nM]	inhibition at 10 µM [2] [%]	inhibition at 10 µM (IL-6 in THP-1 cells) [%]	inhibition at 10 µM [1, 4] [%]	inhibition at 10 µM (SW480 colon cancer cells; [4]) [%]
CCCC(=O)Nc1cncc(-c2cnc3[nH]nc(-c4cc5c(-c6ccccc6F)nccc5[nH]4)c3c2)c1 [Compound 73, N-(5-(3-(4-(2-Fluorophenyl)-1H-pyrrolo[3,2-c]pyridin-2-yl)-1H-pyrazolo[3,4-b]pyridin-5-yl)pyridin-3-yl)butyramide]	0.472	348	2660	53	36	–	–	–	–	–
O=C(Nc1cncc(-c2cnc3[nH]nc(-c4cc5c(-c6ccccc6F)nccc5[nH]4)c3c2)c1)C1CC1 [Compound 76, N-(5-(3-(4-(2-Fluorophenyl)-1H-pyrrolo[3,2-c]pyridin-2-yl)-1H-pyrazolo[3,4-b]pyridin-5-yl)pyridin-3-yl)cyclopropanecarboxamide]	0.321	450	2700	78	53	30	–	–	–	–
O=C(Nc1cncc(-c2cnc3[nH]nc(-c4cc5c(-c6ccccc6F)nccc5[nH]4)c3c2)c1)C1CCCC1 [Compound 78, N-(5-(3-(4-(2-Fluorophenyl)-1H-pyrrolo[3,2-c]pyridin-2-yl)-1H-pyrazolo[3,4-b]pyridin-5-yl)pyridin-3-yl)cyclopentanecarboxamide]	0.96	651	> 10000	51	505	–	12.7	–	–	–
Fc1ccccc1-c1nccc2[nH]c(-c3n[nH]c4ncc(-c5cncnc5)cc34)cc12 [Compound 83, 3-(4-(2-Fluorophenyl)-1H-pyrrolo[3,2-c]pyridin-2-yl)-5-(pyrimidin-5-yl)-1H-pyrazolo[3,4-b]pyridine]	4.06	2080	1210	36	> 10000	–	–	28.3	–	–
Nc1cncc(-c2cnc3[nH]nc(-c4cc5c(-c6ccncc6)nccc5[nH]4)c3c2)c1 [Compound 115, 5-(3-(4-(Pyridin-4-yl)-1H-pyrrolo[3,2-c]pyridin-2-yl)-1H-pyrazolo[3,4-b]pyridin-5-yl)pyridin-3-amine]	> 10	> 10000	> 10000	53	> 10000	30	53.8	9.7	9.3	10.1
c1cncc(-c2cnc3[nH]nc(-c4cc5c(N6CCCCC6)nccc5[nH]4)c3c2)c1 [Compound 172, 3-(4-(Piperidin-1-yl)-1H-pyrrolo[3,2-c]pyridin-2-yl)-5-(pyridin-3-yl)-1H-pyrazolo[3,4-b]pyridine]	4.02	1160	1330	169	484	900	–	–	–	–
CC(C)Nc1cncc(-c2cnc3[nH]nc(-c4cc5c(N6CCCCC6)nccc5[nH]4)c3c2)c1 [Compound 180, N-Isopropyl-5-(3-(4-(piperidin-1-yl)-1H-pyrrolo[3,2-c]pyridin-2-yl)-1H-pyrazolo[3,4-b]pyridin-5-yl)pyridin-3-amine]	3.41	3700	247	34	2130	–	–	–	–	–
